# Measured values as given in EP2955191A1, “Compound, composition and method for treating and/or ameoliorating kidney disease” (Trineo Biotechnology Co. Ltd, priority 2014, dated 2015).
# What was measured:
# MDCK cells = experiment: Cisplatin induced in vitro kidney cell apoptosis (mitochondria membrane potential, DiOC6 staining); type: cell-based, canine; details: given after 50 µM cisplatin for 4 hrs, FIG 1A
# Experimental: Madin-Darby canine kidney (MDCK) cells (1.5 x 10^5 cells/mL) were cultured and maintained in Dulbecco's modified Eagle medium (DMEM) supplemented with 10% fetal bovine serum (FBS), 100 units/mL penicillin, […] streptomycin, 2mM L-glutamine, non-essential amino acids and sodium pyruvate, and maintained in 5% CO2 at 37 °C until reached 80% confluence, then were subject to cell passages.
# MDCK cells were cultured in according to procedures described in the "Materials and Methods" section. To start the experiment, MDCK cells were first incubated with 50 µM cisplatin for 4 hrs, then various concentrations of the compound of formula (I) (50µg/mL or 100 µg/mL) or the YKII-10 composition of example 1.2 (25 to 100 µg/mL) were given to cisplatin-treated cells and further incubated for another 24 hrs. Mitochondria membrane potentials were then measured by staining the live cells with fluorescent dyes (e.g., 50 nM DiOC6), in which 50 nM DiOC6 were added to cells and incubated at 37 °C for 30 min. The cells were then washed twice with phosphate buffer solution before subjecting to microscopy analysis using the inverted fluorescent microscope. […] Results are illustrated in FIGs 1A and 1B.
# Blb/c mice = experiment: Lipopolysaccharide (LPS) induced in vivo kidney inflammation (urine protein); details: oral 100 mg/Kg; LPS 2.5 mg/Kg/day i.p. for 5 days; urine on fifth and tenth day; FIG 3
# Experimental: Blb/c mice were kept in pathogen-free environment under 12:12 light-dark cycle with food (laboratory rodent diet 5001 purchased from PMI Nutrition International Inc. MO, USA) and water (i.e., distilled water) provided ad libitum, ambient temperature and relative humidity were respectively set at 22±3 °C and 50±20%. All procedures involving animal studies of the present disclosure comply with the "Guideline for the Care and Use of Laboratory Animals" issued by The Chinese-Taipei Society of Laboratory Animal Sciences.
# In this example, to evaluate the therapeutic or prophylactic function of the compositon of example 1.2, animals were first injected intraperitoneally with lipopolysaccharide (LPS) to induce in vivo kidney inflammation before being subect to the treatment of the compositon of example 1.2.
# Blb/c mice (6 weeks old) were randomly assigned to two groups, and injected intraperitoneally with lipopolysaccharide (LPS, 2.5 mg/Kg/day) for 5 consecutive days so as to induce kidney inflammation. […] Unine sampls were respectively collected on the fifth and the tenth day after the experiment started, and analyzed for the level of urine protein therein. […]
smiles,measurement,setting,value
C[C@H](CCC(=O)O)[C@H]1C[C@H](O)[C@@]2(C)C3=C(C(=O)C[C@]12C)[C@@]1(C)CCC(=O)C(C)(C)[C@@H]1C[C@@H]3O [compound of formula (I)],reversing cisplatin-induced apoptosis of MDCK cell,MDCK cells; 50µg/mL or 100 µg/mL for 24 hrs,capable of reversing
same,recovery on the membrane potential,"MDCK cells; 100 µg/mL for 24 hrs, MDCK cells",about 80%
same,urine protein level,Blb/c mice,effective in reducing
